Some results are limits rather than exact numbers.

The nature of the assay: Inhibition of mouse IL5-mediated mouse Y16 cell proliferation after 48 hrs by WST1 assay.

In general, IC50 refers to the midpoint of a concentration-inhibition curve. For `O=C(Nc1ccc2oc(-c3ccccc3)c(CO)c(=O)c2c1)c1ccccc1`, the 50% inhibitory concentration (IC50) is 22 µM.
`O=C(Nc1ccc2oc(C3CCCCC3)c(CO)c(=O)c2c1)c1ccccc1` returned an IC50 of 10 µM.
For `CC(=O)OCc1c(C2CCCCC2)oc2ccc(NCc3ccccc3)cc2c1=O`, half-maximal inhibition (IC50) was put at 19.2 µM.
`CC(=O)OCc1c(-c2ccccc2)oc2ccc(NC(=O)c3cnccn3)cc2c1=O` gave an IC50 above 30 µM.
Consider `CC(=O)OCc1c(-c2ccccc2)oc2ccc(NC(=O)c3ccccc3)cc2c1=O`, for which the IC50 was 16 µM.
As for `CC(=O)OCc1c(C2CCCCC2)oc2ccc(NS(=O)(=O)c3ccccc3)cc2c1=O`, the IC50 is above 30 µM.
Turning to `O=C(Nc1ccc2oc(-c3ccccc3)c(CO)c(=O)c2c1)c1cnccn1`, the 50% inhibitory concentration (IC50) was above 30 µM.
As for `O=C(Nc1ccc2oc(C3CCCCC3)c(CO)c(=O)c2c1)C1CCCCC1`, the figure is above 30 µM; as for `CC(=O)OCc1c(C2CCCCC2)oc2ccc(NC(=O)Nc3ccccc3)cc2c1=O`, above 30 µM; as for `CC(=O)OCc1c(C2CCCCC2)oc2ccc(NC(=O)C3CCCCC3)cc2c1=O`, 20 µM.
Regarding `O=C(Nc1ccc2oc(-c3ccc(F)cc3)c(CO)c(=O)c2c1)c1ccccc1`, the concentration for half-maximal inhibition (IC50) is above 30 µM.
`CC(C)C(=O)OCc1c(C2CCCCC2)oc2ccc(NC(=O)c3ccccc3)cc2c1=O` yielded an IC50 of 19 µM. This lies in the double-digit micromolar range.
Compound `O=C(Nc1ccc2oc(-c3ccccc3)c(CO)c(=O)c2c1)C1CCCCC1` came in with a 50% inhibitory concentration (IC50) above 30 µM.
On to `CC(=O)OCc1c(C2CCCCC2)oc2ccc(NC(=O)c3ccccc3)cc2c1=O`, for which inhibition was half-maximal at 6.1 µM (IC50).
`CC(C)(C)C(=O)OCc1c(C2CCCCC2)oc2ccc(NC(=O)c3ccccc3)cc2c1=O` registered a 50% inhibitory concentration (IC50) above 30 µM.
Turning to `CC(=O)OCc1c(-c2ccc(F)cc2)oc2ccc(NC(=O)c3ccccc3)cc2c1=O`, the half-inhibitory concentration (IC50) was above 30 µM.
Regarding `CC(=O)OCc1c(-c2ccccc2)oc2ccc(NC(=O)C3CCCCC3)cc2c1=O`, the IC50 was 18 µM.

The record behind these values is BindingDB's records for doi:10.1016/j.bmc.2015.03.045 (Chungnam National University, 2015).
